Test results as given in ChEMBL document CHEMBL4392883, “Konamycins A and B and Rubromycins CA1 and CA2, Aromatic Polyketides from the Tunicate-Derived Streptomyces hyaluromycini MB-PO13T” (2019).
Values after ≈ are worked out from the molar mass of the structure shown.

Assays:
Assay type in all cases: functional
[1] = Antioxidant activity assessed as DPPH radical scavenging activity
[2] = Antioxidant activity assessed as superoxide dismutase-like activity measured after 20 mins by WST-based assay
Escherichia coli = experiment: Antimicrobial activity against Escherichia coli NIH-JC2 measured after 20 hrs; conditions: NIH-JC2, 20 h
Staphylococcus aureus = experiment: Antimicrobial activity against Staphylococcus aureus IFO 12732 measured after 20 hrs; conditions: IFO 12732, 20 h
[3] = test system: Mycolicibacterium smegmatis; experiment: Antimicrobial activity against Mycobacterium smegmatis NBRC 3207 measured after 20 hrs; conditions: NBRC 3207, 20 h
Bacillus cereus = experiment: Antimicrobial activity against Bacillus cereus NBRC 15305 measured after 20 hrs; conditions: NBRC 15305, 20 h
Kocuria rhizophila = experiment: Antimicrobial activity against Kocuria rhizophila ATCC 9341 measured after 20 hrs; conditions: DC2201 
Enterococcus faecalis = experiment: Antimicrobial activity against Enterococcus faecalis NBRC 100480 measured after 20 hrs
Candida albicans = experiment: Antimicrobial activity against Candida albicans NBRC 1594 measured after 20 hrs; conditions: NBRC 1594, 20 h
Kluyveromyces marxianus = experiment: Antimicrobial activity against Kluyveromyces fragilis ATCC 8635 measured after 20 hrs; conditions: ATCC 8635, 20 h

Compound	SC50 [1] [µM]	SC50 [2] [µM]	MIC (Escherichia coli) [µg/mL]	MIC (Staphylococcus aureus) [µg/mL]	MIC [3] [µg/mL]	MIC (Bacillus cereus) [µg/mL]	MIC (Kocuria rhizophila) [µg/mL]	MIC (Enterococcus faecalis) [µg/mL]	MIC (Candida albicans) [µg/mL]	MIC (Kluyveromyces marxianus) [µg/mL]
CC(=O)O[C@H]1C2=C(C=C3C(=O)c4c(ccc([C@H]5CC[C@H](O)[C@@H](C)O5)c4O)C(O)=C32)C(=O)[C@@](C)(O)[C@@H]1OC(=O)CCC(=O)O	21	66								
Cc1c(C)c2c(c(C)c1O)CCC(C)(C(=O)O)O2 (stereo not given)	9									
COC1=CC(=O)c2c(O)c3c(c(O)c2C1=O)O[C@@]1(CCc2cc4cc(C(=O)O)oc(=O)c4c(O)c2O1)C3			> 100	0.2 (≈ 0.393 µM)	3.1 (≈ 6.1 µM)	12.5 (≈ 24.6 µM)	12.5 (≈ 24.6 µM)	100 (≈ 197 µM)	6.3 (≈ 12.4 µM)	12.5 (≈ 24.6 µM)
O=C(O)c1cc(O)c(O)c(O)c1		102								
COC1=CC(=O)c2c(O)c3c(c(O)c2C1=O)O[C@@]1(CCc2cc4cc(C(=O)O)oc(=O)c4c(O)c2O1)[C@H]3O			> 100	0.4 (≈ 0.763 µM)	12.5 (≈ 23.8 µM)	50 (≈ 95.3 µM)	50 (≈ 95.3 µM)	> 100	> 100	> 100
